Patent US20220265759A1, “COMPOSITION AND METHOD FOR PROMOTING WOUND HEALING” (THE BOARD OF TRUSTEES OF THE UNIVERSITY OF ILLIOIS, priority 2019, published 2022)
Peptide text beside a SMILES is read from it. * marks the point of attachment. Myristoyl = CCCCCCCCCCCCCC(=O)*

Assays:
cell viability = assay: Cell viability; type: cell-based
[1] = tested on: eNOS and CCR10 interaction with LAMP1; assay: eNOS internalization and degradation in HDMVECs stimulated with CCL28 (Co-IP with LAMP1, confocal microscopy); type: cell-based, human
Protocol: Co-IP Experiments, cells or mouse wounds were collected after treatment, and lysed in 2% ODG in Tris buffer. The homogenates were further prepared for Co-IP experiments as described in the art (Chen, et al. (2018) Mol. Biol. Cell 29(10):1190-1202; Chen, et al. (2020) FASEB J. 34(4):5838-5850; Chen, et al. (2015) Ann. Rheum. Dis. 74:1898-1906).
Confocal Microscopy. For cellular immunostaining, confluent monolayers of cells grown on coverslips were prepared as described previously (Chen, et al. (2012) Mel. Biol. Cell 23(7):1388-1398). Fluorescent images were obtained using a Zeiss LSM 880 confocal microscope. The co-localization coefficient in specified regions of interest (ROI) were determined using Zeiss Zen software. Briefly, using the Overlay tool, the desired ROI was drawn along the cell edge and the values for the ROIs tabulated. The scatterplot and table were automatically adjusted to the pixel distribution for the selected ROI. The data from different treatment groups were collected and analyzed for statistical significance as described previously (Chen, et al. (2020) FASEB J. 34(4):5838-5850). […]
Since myristoylated 7 amino acid CCR10-binding domain (Myr-CBD7) peptide can block eNOS interaction with CCR10 and increase eNOS activity in HUVECs, it was assessed whether Myr-CBD7 can prevent eNOS internalization and degradation in HDMVECs following CCL28 stimulation. […]

## CCCCCCCCCCCCCC(=O)N[C@@H](CCCCN)C(=O)N[C@H](C(=O)N[C@@H](CO)C(=O)N[C@@H](C)C(=O)N[C@@H](CO)C(=O)N[C@@H](CC(C)C)C(=O)N[C@@H](CCSC)C(=O)O)[C@@H](C)CC [Myr-CBD7, myr-KISASLM] (Myristoyl-KISASLM-OH)
Cell viability
  concentration without adversely affecting cell viability: up to 100 μM
[1]; HDMVECs, pretreatment, CCL28 stimulation, compared to scrambled control peptide
  eNOS interaction with LAMP1: prevented
[1]; pretreatment prior to CCL28 for 3 hours
  eNOS localization (confocal microscopy): remained on the plasma membrane
